Assay results published in ChEMBL document CHEMBL1201862, “PubChem BioAssay data set” (2004).
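The compound was tested at five concentrations on cells cultured in 96-well plates, with a 48-hour exposure period. GI50: concentration for 50% inhibition of growth.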 Active and inactive are the calls of the source. Rule as the data show it: active = GI50 up to about 1.1 µM and inactive = higher.

What was measured:
Experiment in all cases: DTP human tumour cell line panel, 48 h
[1] = system: 786-0
[2] = system: A498
[3] = system: A549
[4] = system: ACHN
[5] = system: BT-549
[6] = system: CAKI-1
[7] = system: CCRF-CEM
[8] = system: COLO 205
[9] = system: DU-145
[10] = system: EKVX
[11] = system: HCC 2998
[12] = system: HCT-116
[13] = system: HCT-15
[14] = system: HL-60
[15] = system: HOP-62
[16] = system: HT-29
[17] = system: Hs-578T
[18] = system: IGROV-1
[19] = system: K562
[20] = system: KM12
[21] = system: LOX IMVI
[22] = system: M14
[23] = system: MCF7
[24] = system: MDA-MB-231
[25] = system: MDA-MB-435
[26] = system: MDA-N
[27] = system: MOLT-4
[28] = system: Malme-3M
[29] = system: NCI-H23
[30] = system: NCI-H460
[31] = system: NCI-H522
[32] = system: OVCAR-3
[33] = system: OVCAR-4
[34] = system: OVCAR-5
[35] = system: OVCAR-8
[36] = system: PC-3
[37] = system: RPMI-8226
[38] = system: RXF 393
[39] = system: SF-268
[40] = system: SF-295
[41] = system: SF-539
[42] = system: SK-MEL-28
[43] = system: SK-MEL-2
[44] = system: SK-MEL-5
[45] = system: SK-OV-3
[46] = system: SN12C
[47] = system: SNB-19
[48] = system: SNB-75
[49] = system: SR
[50] = system: SW-620
[51] = system: T47D
[52] = system: TK-10
[53] = system: U-251
[54] = system: UACC-257
[55] = system: UACC-62
[56] = system: UO-31
[57] = system: NCI-H226
[58] = system: NCI/ADR-RES
[59] = system: HOP-92

Measured: GI50

Cc1cc(C)c2nccc(NCCCN(C)C)c2c1[N+](=O)[O-]
15 µM: [13]
inactive: [1] 36.2 µM | [2] 59 µM | [3] 30.8 µM | [4] 34.9 µM | [5] 35.5 µM | [6] 32.2 µM | [7] 37.2 µM | [8] 14.8 µM | [9] 44.2 µM | [10] 64 µM | [11] 22.8 µM | [12] 30.9 µM | [14] 25.9 µM | [15] 47.9 µM | [16] 18.7 µM | [17] 34 µM | [18] 19.6 µM | [19] 31 µM | [20] 31.4 µM | [21] 18.6 µM | [22] 19.1 µM | [23] 30.5 µM | [24] 51.1 µM | [25] 29.6 µM | [26] 38.8 µM | [27] 39.6 µM | [28] 19.3 µM | [29] 19.2 µM | [30] 26.8 µM | [31] 14.4 µM | [32] 35.5 µM | [33] 13.8 µM | [34] 44 µM | [35] 37.6 µM | [36] 20.6 µM | [37] 34.6 µM | [38] 19.5 µM | [39] 33 µM | [40] 26.1 µM | [41] 34.9 µM | [42] 19.6 µM | [43] 23.8 µM | [44] 13.5 µM | [45] > 100 µM | [46] 40.9 µM | [47] > 100 µM | [48] 24.9 µM | [49] 30.6 µM | [50] 26.9 µM | [51] 33.3 µM | [52] 30.8 µM | [53] 52.5 µM | [54] 17.1 µM | [55] 34.1 µM | [56] 20.3 µM

S=C(N1CCN(c2ccc(Cl)c(Cl)c2)CC1)N1CCN(c2ccc(Cl)c(Cl)c2)CC1
inactive: [1] 10.8 µM | [3] 16.3 µM | [4] 14.4 µM | [5] 16.2 µM | [6] 7.4 µM | [7] 3.42 µM | [8] 10.6 µM | [9] 12.4 µM | [10] 3.38 µM | [11] 13.7 µM | [12] 7.19 µM | [15] 12.5 µM | [16] 9.42 µM | [17] 6.52 µM | [18] 10.7 µM | [19] 12.2 µM | [20] 14.1 µM | [22] 15.6 µM | [23] 11.7 µM | [24] 9.08 µM | [25] 15.4 µM | [26] 11.6 µM | [27] 6.18 µM | [28] 14.2 µM | [57] 11.1 µM | [29] 15.3 µM | [31] 10.9 µM | [58] 16.3 µM | [32] 13.5 µM | [33] 13.7 µM | [34] 19.6 µM | [35] 14.8 µM | [36] 12.7 µM | [37] 18 µM | [38] 14.3 µM | [39] 14.4 µM | [40] 9.25 µM | [42] 14.7 µM | [43] 19.9 µM | [44] 15.1 µM | [45] 12.5 µM | [47] 12.5 µM | [49] 1.36 µM | [50] 17.5 µM | [51] 7.94 µM | [52] 13.4 µM | [53] 14.7 µM | [54] 17.1 µM | [55] 15.5 µM | [56] 13.1 µM
15.4 µM: [13]

Cc1nc(/C(=N\n2cnnc2)Nc2ccc(Br)cc2)no1
> 100 µM: [13]
inactive: [1] > 100 µM | [2] > 100 µM | [3] > 100 µM | [4] > 100 µM | [5] > 100 µM | [6] > 100 µM | [7] > 100 µM | [8] > 100 µM | [9] > 100 µM | [10] > 100 µM | [11] > 100 µM | [12] > 100 µM | [15] > 100 µM | [59] > 100 µM | [16] > 100 µM | [17] > 100 µM | [18] > 100 µM | [19] 57.1 µM | [20] > 100 µM | [22] > 100 µM | [23] > 100 µM | [24] > 100 µM | [25] > 100 µM | [26] > 100 µM | [27] > 100 µM | [28] > 100 µM | [29] > 100 µM | [30] > 100 µM | [31] > 100 µM | [58] > 100 µM | [32] > 100 µM | [33] > 100 µM | [34] > 100 µM | [35] > 100 µM | [36] > 100 µM | [37] > 100 µM | [38] > 100 µM | [40] > 100 µM | [42] > 100 µM | [43] > 100 µM | [44] > 100 µM | [45] > 100 µM | [47] > 100 µM | [48] 66.7 µM | [50] > 100 µM | [51] > 100 µM | [53] > 100 µM | [54] > 100 µM | [55] > 100 µM | [56] > 100 µM
